Experimental data published in patent EP1824486B1, “BENZDIOXANE PIPERAZINE DERIVATIVES WITH A COMBINATION OF AFFINITY FOR DOPAMINE-D2 RECEPTORS AND SEROTONIN REUPTAKE SITES” (Solvay Pharmaceuticals B.V., priority 2004, dated 2006).

Columns and labels:
serotonin reuptake sites = target: T1, serotonin reuptake sites (Rattus norvegicus, UniProt P31652); assay: In vitro affinity for serotonin reuptake sites ([3H]-paroxetine binding assay, Habert et al.); conditions: average values from three independent experiments; read-out: in vitro affinity 5-HT reuptake binding Ki
T1 construct: from tissue; host or cells: rat cortical membranes (from the title of the cited method only)
Description: In vitro affinity for serotonin reuptake sites

dopamine D2 receptors = target: T2, dopamine D2 receptors (Mus musculus, UniProt P61168); assay: Antagonism of apomorphine-induced climbing behaviour in mice (APO-climb); conditions: po, read-out: in vivo activity Dopamine-D2 APO-climb* ED50 mg/kg po
T2 construct: antagonize apomorphine-induced climbing behaviour in mice; from tissue; host or cells: living mice (in vivo behavioural model)

serotonin reuptake = target: T3, serotonin reuptake (Mus musculus, UniProt Q60857); assay: Potentiation of 5-HTP induced behaviour in mice; conditions: po, read-out: in vivo activity 5-HT reuptake 5-HTP** ED50 mg/kg po
T3 construct: they potentiate 5-HTP induced behaviour in mice; from tissue; host or cells: living mice (in vivo behavioural model)
T3 sequence (Q60857 whole entry): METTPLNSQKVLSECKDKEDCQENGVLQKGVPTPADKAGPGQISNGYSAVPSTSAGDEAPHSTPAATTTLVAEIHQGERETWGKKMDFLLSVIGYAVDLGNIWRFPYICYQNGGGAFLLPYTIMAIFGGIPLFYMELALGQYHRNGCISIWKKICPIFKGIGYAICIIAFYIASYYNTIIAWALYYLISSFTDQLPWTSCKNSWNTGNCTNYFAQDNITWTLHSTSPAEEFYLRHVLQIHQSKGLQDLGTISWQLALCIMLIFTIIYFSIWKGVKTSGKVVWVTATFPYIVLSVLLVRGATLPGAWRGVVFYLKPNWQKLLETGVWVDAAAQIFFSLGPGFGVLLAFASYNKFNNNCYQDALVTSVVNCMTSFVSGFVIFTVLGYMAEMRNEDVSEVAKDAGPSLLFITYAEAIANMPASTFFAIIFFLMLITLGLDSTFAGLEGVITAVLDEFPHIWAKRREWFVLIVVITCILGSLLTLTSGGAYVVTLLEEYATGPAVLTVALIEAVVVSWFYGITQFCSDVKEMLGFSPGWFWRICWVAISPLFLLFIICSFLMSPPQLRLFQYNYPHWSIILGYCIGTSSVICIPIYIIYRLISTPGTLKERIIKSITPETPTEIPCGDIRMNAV

T2 sequence (P61168 whole entry): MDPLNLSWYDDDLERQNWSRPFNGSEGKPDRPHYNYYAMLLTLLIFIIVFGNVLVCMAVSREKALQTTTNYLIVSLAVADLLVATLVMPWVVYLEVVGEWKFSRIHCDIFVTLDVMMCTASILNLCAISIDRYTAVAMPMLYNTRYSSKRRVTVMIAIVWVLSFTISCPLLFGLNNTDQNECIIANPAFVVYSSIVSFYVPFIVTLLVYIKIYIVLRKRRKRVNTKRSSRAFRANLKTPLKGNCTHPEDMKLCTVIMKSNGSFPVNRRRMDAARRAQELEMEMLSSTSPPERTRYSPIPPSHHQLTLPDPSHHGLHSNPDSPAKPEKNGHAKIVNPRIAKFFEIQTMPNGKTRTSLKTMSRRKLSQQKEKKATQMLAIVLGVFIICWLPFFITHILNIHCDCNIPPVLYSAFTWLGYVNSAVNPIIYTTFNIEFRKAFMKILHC
T1 sequence (P31652 whole entry): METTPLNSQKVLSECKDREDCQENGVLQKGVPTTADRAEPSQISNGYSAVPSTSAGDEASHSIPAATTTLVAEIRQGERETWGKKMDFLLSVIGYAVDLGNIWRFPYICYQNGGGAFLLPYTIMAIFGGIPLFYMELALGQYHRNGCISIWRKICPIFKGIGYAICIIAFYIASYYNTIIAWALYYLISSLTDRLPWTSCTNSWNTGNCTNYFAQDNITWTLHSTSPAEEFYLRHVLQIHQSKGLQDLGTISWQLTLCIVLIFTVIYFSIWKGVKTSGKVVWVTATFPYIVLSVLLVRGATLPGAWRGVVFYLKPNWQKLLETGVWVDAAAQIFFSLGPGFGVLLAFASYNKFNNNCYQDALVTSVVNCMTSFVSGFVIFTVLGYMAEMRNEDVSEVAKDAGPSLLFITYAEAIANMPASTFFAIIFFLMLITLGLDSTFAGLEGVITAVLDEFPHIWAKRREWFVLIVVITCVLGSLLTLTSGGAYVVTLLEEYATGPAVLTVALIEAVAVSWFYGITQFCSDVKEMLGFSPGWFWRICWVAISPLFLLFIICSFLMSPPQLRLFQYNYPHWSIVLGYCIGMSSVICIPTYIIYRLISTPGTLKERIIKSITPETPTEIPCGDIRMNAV

Compound	Ki (serotonin reuptake sites)	ED50 (dopamine D2 receptors)	ED50 (serotonin reuptake)
Clc1cccc2c(CCCN3CCN(c4cccc5c4OCCO5)CC3)c[nH]c12 [5l, 3-{3-[4-(2,3-Dihydro-benzo[1,4]dioxin-5-yl)-piperazin-1-yl]-propyl}-7-chloro-1H-indole]	7.9 ± 2.8 nM		
c1cc2c(c(N3CCN(Cc4c[nH]c5ccccc45)CC3)c1)OCCO2 [compound 5a, 3-[4-(2,3-Dihydro-benzo[1,4]dioxin-5-yl)-piperazin-1-yl-methyl]-1H-indole]	176 ± 59 nM		
c1cc2c(c(N3CCN(CCCc4c[nH]c5ccccc45)CC3)c1)OCCO2 [compound 5b, 3-{3-[4-(2,3-Dihydro-benzo[1,4]dioxin-5-yl)-piperazin-1-yl]-propyl}-1H-indole]	0.4 ± 0.1 nM	10 mg/kg	22 mg/kg
c1cc2c(c(N3CCN(CCCCCc4c[nH]c5ccccc45)CC3)c1)OCCO2 [compound 5c, 3-{5-[4-(2,3-Dihydro-benzo[1,4]dioxin-5-yl)-piperazin-1-yl]-pentyl}-1H-indole]	37 ± 3 nM		
Fc1cccc2[nH]cc(CCCN3CCN(c4cccc5c4OCCO5)CC3)c12 [compound 5d, 3-{3-[4-(2,3-Dihydro-benzo[1,4]dioxin-5-yl)-piperazin-1-yl]-propyl}-4-fluoro-1H-indole]	0.4 ± 0.1 nM	13 mg/kg	32 mg/kg
Fc1ccc2[nH]cc(CCCN3CCN(c4cccc5c4OCCO5)CC3)c2c1 [compound 5e, 3-{3-[4-(2,3-Dihydro-benzo[1,4]dioxin-5-yl)-piperazin-1-yl]-propyl}-5-fluoro-1H-indole]	0.3 ± 0.1 nM		2 mg/kg
Fc1ccc2c(CCCN3CCN(c4cccc5c4OCCO5)CC3)c[nH]c2c1 [compound 5f, 3-{3-[4-(2,3-Dihydro-benzo[1,4]dioxin-5-yl)-piperazin-1-yl]-propyl}-6-fluoro-1H-indole]	1.6 ± 0.2 nM	9 mg/kg	
Fc1cccc2c(CCCN3CCN(c4cccc5c4OCCO5)CC3)c[nH]c12 [compound 5g, 3-{3-[4-(2,3-Dihydro-benzo[1,4]dioxin-5-yl)-piperazin-1yl]-propyl}-7-fluoro-1H-indole]	0.6 ± 0.1 nM		28.4 mg/kg
COc1ccc2[nH]cc(CCCN3CCN(c4cccc5c4OCCO5)CC3)c2c1 [compound 5h, 3-{3-[4-(2,3-Dihydro-benzo[1,4]dioxin-5-yl)-piperazin-1-yl]-propyl}-5-methoxy-1H-indole]	14 ± 4 nM		
Clc1cccc2[nH]cc(CCCN3CCN(c4cccc5c4OCCO5)CC3)c12 [compound 5i, 3-{3-[4-(2,3-Dihydro-benzo[1,4]dioxin-5-yl)-piperazin-1-yl]-propyl}-4-chloro-1H-indole]	1.4 ± 0.4 nM		
Clc1ccc2c(CCCN3CCN(c4cccc5c4OCCO5)CC3)c[nH]c2c1 [compound 5k, 3-{3-[4-(2,3-Dihydro-benzo[1,4]dioxin-5-yl)-piperazin-1-yl]-propyl}-6-chloro-1H-indole]	2 ± 0.7 nM	4.5 mg/kg	86 mg/kg
Cc1cccc2c(CCCN3CCN(c4cccc5c4OCCO5)CC3)c[nH]c12 [compound 5n, 3-{3-[4-(2,3-Dihydro-benzo[1,4]dioxin-5-yl)-piperazin-1-yl]-propyl}-7-methyl-1H-indole]	12 ± 5 nM		
c1cc2c(c(N3CCN(CCCc4c[nH]c5ccccc45)CC3)c1)CCCO2 [compound 14, 3-[3-(4-chroman-5-yl-piperazine-1-yl)-propyl]-1H-indole]	1.1 ± 0.3 nM		
